Reference: US20060089378A1 (priority 2004, published 2006)
pIC50: −log10 of the molar value. Like-named read-outs stand apart in the source and are kept apart here.

Legend:
Cannabinoid CB2 Receptor = molecular target: T1, Cannabinoid CB2 Receptor (Homo sapiens, UniProt P34972); experiment: Binding assay for CB2 agonists or inverse agonists (radioligand competition, membranes of transfected SK-N-MC cells); conditions: for inhibition at 0.2 µM: read-out: Cannabinoid CB2 Receptor Binding percent inhibition
T1 construct: expressed in transfected cells

Cannabinoid CB1 Receptor = molecular target: T2, Cannabinoid CB1 Receptor (Homo sapiens, UniProt P21554); experiment: Binding assay for CB1 agonists or inverse agonists (radioligand competition, membranes of transfected SK-N-MC cells); conditions: for inhibition at 0.2 µM: read-out: Cannabinoid CB1 Receptor Binding percent inhibition
T2 construct: expressed in transfected cells

[1] = test concentration of 0.2 μM, compounds without an IC50 binding value

T2 sequence (P21554 whole entry): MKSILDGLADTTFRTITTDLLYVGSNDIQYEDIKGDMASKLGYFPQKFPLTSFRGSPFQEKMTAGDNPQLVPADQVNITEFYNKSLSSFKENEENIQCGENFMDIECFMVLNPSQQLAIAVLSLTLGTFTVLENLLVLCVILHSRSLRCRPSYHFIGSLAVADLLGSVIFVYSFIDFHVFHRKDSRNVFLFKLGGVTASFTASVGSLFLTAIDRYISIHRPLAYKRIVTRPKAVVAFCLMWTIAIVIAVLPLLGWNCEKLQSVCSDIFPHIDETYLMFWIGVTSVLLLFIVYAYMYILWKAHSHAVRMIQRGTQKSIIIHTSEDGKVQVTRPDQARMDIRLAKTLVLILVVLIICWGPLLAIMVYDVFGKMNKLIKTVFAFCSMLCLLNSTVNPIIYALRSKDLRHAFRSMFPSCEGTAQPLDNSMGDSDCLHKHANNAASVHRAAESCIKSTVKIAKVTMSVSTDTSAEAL
T1 sequence (P34972 whole entry): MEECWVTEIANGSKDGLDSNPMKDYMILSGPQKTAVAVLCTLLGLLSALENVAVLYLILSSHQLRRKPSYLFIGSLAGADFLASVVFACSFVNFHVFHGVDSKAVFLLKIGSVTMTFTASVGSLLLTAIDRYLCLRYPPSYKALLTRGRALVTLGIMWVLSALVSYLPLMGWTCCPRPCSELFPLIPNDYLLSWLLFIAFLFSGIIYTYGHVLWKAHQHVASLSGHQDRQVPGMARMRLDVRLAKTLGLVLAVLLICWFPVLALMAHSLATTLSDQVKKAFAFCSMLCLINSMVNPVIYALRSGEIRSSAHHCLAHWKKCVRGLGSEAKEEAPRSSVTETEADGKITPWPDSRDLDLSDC

C[C@H](NC(=O)c1nn(-c2ccc(Cl)cc2Cl)c2c1CN(C(=O)OC(C)(C)C)C/C2=C\c1ccc(F)cc1)C1CCCCC1 [Cpd 4, (7E)-3-[(1S)-1-cyclohexyl-ethylcarbamoyl]-1-(2,4-dichloro-phenyl)-7-(4-fluoro-benzylidene)-1,4,6,7-tetrahydro-pyrazolo[4,3-c]pyridine-5-carboxylic acid tert-butyl ester]
inhibition at 0.2 µM (Cannabinoid CB2 Receptor): 9%
inhibition at 0.2 µM (Cannabinoid CB1 Receptor): 48%

C[C@H](NC(=O)c1nn(-c2ccc(Cl)cc2Cl)c2c1CNC/C2=C\c1ccc(F)cc1)C1CCCCC1 [Cpd 5, (7E)-1-(2,4-dichloro-phenyl)-7-(4-fluoro-benzylidene)-4,5,6,7-tetrahydro-1H-pyrazolo[4,3-c]pyridine-3-carboxylic acid [(1S)-1-cyclohexyl-ethyl]-amide]
inhibition at 0.2 µM (Cannabinoid CB2 Receptor): 8%
inhibition at 0.2 µM (Cannabinoid CB1 Receptor): 48%

COc1ccc(/C=C2\CN(S(=O)(=O)N(C)C)Cc3c(C(=O)N[C@H](C)c4ccccc4)nn(-c4ccc(Cl)cc4Cl)c32)cc1 [Cpd 47]
Cannabinoid CB2 Receptor Binding percent inhibition (Cannabinoid CB2 Receptor; [1]): 66%
pIC50 (Cannabinoid CB1 Receptor): 8.70

COc1ccc(/C=C2\CN(CC(=O)O)Cc3c(C(=O)N[C@H](C)c4ccccc4)nn(-c4ccc(Cl)cc4Cl)c32)cc1 [Cpd 51, (7E)-[1-(2,4-dichloro-phenyl)-7-(4-methoxy-benzylidene)-3-[(1R)-1-phenyl-ethylcarbamoyl]-1,4,6,7-tetrahydro-pyrazolo[4,3-c]pyridin-5-yl]-acetic acid]
inhibition at 0.2 µM (Cannabinoid CB2 Receptor; [1]): 19%
inhibition at 0.2 µM (Cannabinoid CB1 Receptor; [1]): 49%

C[C@@H](NC(=O)c1nn(-c2ccc(Cl)cc2Cl)c2c1CN(CC(=O)O)C/C2=C\c1ccc(F)cc1)c1ccccc1 [Cpd 52, (7E)-[1-(2,4-dichloro-phenyl)-7-(4-fluoro-benzylidene)-3-[(1R)-1-phenyl-ethylcarbamoyl]-1,4,6,7-tetrahydro-pyrazolo[4,3-c]pyridin-5-yl]-acetic acid]
inhibition at 0.2 µM (Cannabinoid CB2 Receptor; [1]): 7%
inhibition at 0.2 µM (Cannabinoid CB1 Receptor; [1]): 38%

CC(NC(=O)c1nn(-c2ccc(Cl)cc2)c2c1CN(C(=O)OC(C)(C)C)C/C2=C\c1ccc(F)cc1)c1ccccn1 (stereo not shown) [Cpd 73, (7E)-1-(4-chloro-phenyl)-7-(4-fluoro-benzylidene)-3-(1-pyridin-2-yl-ethylcarbamoyl)-1,4,6,7-tetrahydro-pyrazolo[4,3-c]pyridine-5-carboxylic acid tert-butyl ester]
inhibition at 0.2 µM (Cannabinoid CB2 Receptor; [1]): 6%
inhibition at 0.2 µM (Cannabinoid CB1 Receptor; [1]): 50%

CC(C)(C)OC(=O)N1C/C(=C\c2ccc(F)cc2)c2c(c(C(=O)NN3CCCCC3)nn2-c2ccc(Cl)cc2)C1 [Cpd 74, (7E)-1-(4-chloro-phenyl)-7-(4-fluoro-benzylidene)-3-(piperidin-1-ylcarbamoyl)-1,4,6,7-tetrahydro-pyrazolo[4,3-c]pyridine-5-carboxylic acid tert-butyl ester]
inhibition at 0.2 µM (Cannabinoid CB2 Receptor; [1]): 3%
inhibition at 0.2 µM (Cannabinoid CB1 Receptor; [1]): 39%

CC(=O)N1C/C(=C\c2ccc(F)cc2)c2c(c(C(=O)NN3CCCCC3)nn2-c2ccc(Cl)cc2)C1 [Cpd 81, (7E)-5-acetyl-1-(4-chloro-phenyl)-7-(4-fluoro-benzylidene)-4,5,6,7-tetrahydro-1H-pyrazolo[4,3-c]pyridine-3-carboxylic acid piperidin-1-ylamide]
inhibition at 0.2 µM (Cannabinoid CB2 Receptor; [1]): 22%
inhibition at 0.2 µM (Cannabinoid CB1 Receptor; [1]): 10%

COC(=O)N1C/C(=C\c2ccc(F)cc2)c2c(c(C(=O)NN3CCCCC3)nn2-c2ccc(Cl)cc2)C1 [Cpd 82, (7E)-1-(4-chloro-phenyl)-7-(4-fluoro-benzylidene)-3-(piperidin-1-ylcarbamoyl)-1,4,6,7-tetrahydro-pyrazolo[4,3-c]pyridine-5-carboxylic acid methyl ester]
Cannabinoid CB2 Receptor Binding percent inhibition (Cannabinoid CB2 Receptor; [1]): 32%
pIC50 (Cannabinoid CB1 Receptor): 7.22

CCNC(=O)N1C/C(=C\c2ccc(F)cc2)c2c(c(C(=O)NN3CCCCC3)nn2-c2ccc(Cl)cc2)C1 [Cpd 83, (7E)-1-(4-chloro-phenyl)-7-(4-fluoro-benzylidene)-1,4,6,7-tetrahydro-pyrazolo[4,3-c]pyridine-3,5-dicarboxylic acid 5-ethylamide 3-piperidin-1-ylamide]
inhibition at 0.2 µM (Cannabinoid CB2 Receptor; [1]): 19%
inhibition at 0.2 µM (Cannabinoid CB1 Receptor; [1]): 32%

CC(C)(C)OC(=O)N1C/C(=C\c2ccc(F)cc2)c2c(c(C(=O)NN3CC4CCCC4C3)nn2-c2ccc(Cl)cc2)C1 (stereo not shown) [Cpd 84, (7E)-1-(4-chloro-phenyl)-7-(4-fluoro-benzylidene)-3-(hexahydro-cyclopenta[c]pyrrol-2-ylcarbamoyl)-1,4,6,7-tetrahydro-pyrazolo[4,3-c]pyridine-5-carboxylic acid tert-butyl ester]
inhibition at 0.2 µM (Cannabinoid CB2 Receptor; [1]): 12%
inhibition at 0.2 µM (Cannabinoid CB1 Receptor; [1]): 30%

O=C(NN1CC2CCCC2C1)c1nn(-c2ccc(Cl)cc2)c2c1CNC/C2=C\c1ccc(F)cc1 (stereo not shown) [Cpd 85, (7E)-1-(4-chloro-phenyl)-7-(4-fluoro-benzylidene)-4,5,6,7-tetrahydro-1H-pyrazolo[4,3-c]pyridine-3-carboxylic acid (hexahydro-cyclopenta[c]pyrrol-2-yl)-amide]
inhibition at 0.2 µM (Cannabinoid CB2 Receptor; [1]): 11%
inhibition at 0.2 µM (Cannabinoid CB1 Receptor; [1]): 45%

CC(=O)N1C/C(=C\c2ccc(F)cc2)c2c(c(C(=O)NN3CC4CCCC4C3)nn2-c2ccc(Cl)cc2)C1 (stereo not shown) [Cpd 86, (7E)-5-acetyl-1-(4-chloro-phenyl)-7-(4-fluoro-benzylidene)-4,5,6,7-tetrahydro-1H-pyrazolo[4,3-c]pyridine-3-carboxylic acid (hexahydro-cyclopenta[c]pyrrol-2-yl)-amide]
inhibition at 0.2 µM (Cannabinoid CB2 Receptor; [1]): 24%
inhibition at 0.2 µM (Cannabinoid CB1 Receptor; [1]): 46%

CC(C)(C)OC(=O)N1C/C(=C\c2ccc(F)cc2)c2c(c(C(=O)NN3CC4CCCC4C3)nn2-c2ccc(Cl)cc2Cl)C1 (stereo not shown) [Cpd 88, (7E)-1-(2,4-dichloro-phenyl)-7-(4-fluoro-benzylidene)-3-(hexahydro-cyclopenta[c]pyrrol-2-ylcarbamoyl)-1,4,6,7-tetrahydro-pyrazolo[4,3-c]pyridine-5-carboxylic acid tert-butyl ester]
inhibition at 0.2 µM (Cannabinoid CB2 Receptor; [1]): 0%
inhibition at 0.2 µM (Cannabinoid CB1 Receptor; [1]): 53%

COc1ccc(/C=C2\CN(C(=O)OC(C)(C)C)Cc3c(C(=O)NN4CC5CCCC5C4)nn(-c4ccc(Cl)cc4Cl)c32)cc1 (stereo not shown) [Cpd 94, (7E)-1-(2,4-dichloro-phenyl)-3-(hexahydro-cyclopenta[c]pyrrol-2-ylcarbamoyl)-7-(4-methoxy-benzylidene)-1,4,6,7-tetrahydro-pyrazolo[4,3-c]pyridine-5-carboxylic acid tert-butyl ester]
inhibition at 0.2 µM (Cannabinoid CB2 Receptor; [1]): 38%
inhibition at 0.2 µM (Cannabinoid CB1 Receptor; [1]): 70%

CCNC(=O)N1C/C(=C\c2ccc(OC)cc2)c2c(c(C(=O)NN3CC4CCCC4C3)nn2-c2ccc(Cl)cc2Cl)C1 (stereo not shown) [Cpd 101, (7E)-1-(2,4-dichloro-phenyl)-7-(4-methoxy-benzylidene)-1,4,6,7-tetrahydro-pyrazolo[4,3-c]pyridine-3,5-dicarboxylic acid 5-ethylamide 3-[(hexahydro-cyclopenta[c]pyrrol-2-yl)-amide]]
inhibition at 0.2 µM (Cannabinoid CB2 Receptor; [1]): 15%
inhibition at 0.2 µM (Cannabinoid CB1 Receptor; [1]): 68%

CCCCn1nc(C(=O)NN2CCCCC2)c2c1CCN(C(=O)OC)C2 [Cpd 102, 1-butyl-3-(piperidin-1-ylcarbamoyl)-1,4,6,7-tetrahydro-pyrazolo[4,3-c]pyridine-5-carboxylic acid methyl ester]
inhibition at 0.2 µM (Cannabinoid CB2 Receptor; [1]): 23%

CC(C)(C)OC(=O)N1CCc2c(c(C(=O)NC3C4CC5CC(C4)CC3C5)nn2C2CCCCC2)C1 (stereo not shown) [Cpd 130, 3-(adamantan-2-ylcarbamoyl)-1-cyclohexyl-1,4,6,7-tetrahydro-pyrazolo[4,3-c]pyridine-5-carboxylic acid tert-butyl ester]
pIC50 (Cannabinoid CB1 Receptor): 7.22
